Each structure is given as a SMILES string. Some results are limits rather than exact numbers.

In one experiment the target is T1, mTOR kinase (Homo sapiens, UniProt P42345).
T1 construct: purchased Millipore, USA
Put plainly: mTOR kinase TR-FRET assay. The class given is biochemical. To be noted: read-out: mTO R. The procedure: Compound inhibition for mTOR kinase was determined in a homogeneous TR-FRET assay using the Lance® ULight-p70 S6K (Thr 389) peptide (obtained from Perkin-Elmer). The ULight™-labeled synthetic peptide contains the amino acid residues surrounding Thr389 of human p70 S6K. The ULight-p70 S6K peptide is phosphorylated at Thr389 by mTOR. Phosphorylation motif: LGFTYVAP as substrate.
The compound dilution was carried out in 100% DMSO followed by a buffer dilution. The reaction buffer was HEPES (50 mM pH 7.5), EGTA (1 mM), MnCl2 (3 mM). Test compounds at various concentrations were pre-incubated with mTOR (Millipore, USA; 5 ng) for 60 min, and then the Lance® ULight-p70 S6K (Thr 389) peptide (50 nM) was added along with ATP (20 μM). After incubating the reaction mixture for 60 min at room temperature, the kinase reaction was terminated by the addition of EDTA (10 mM) followed by the addition of detection mix, i.e., 1 nM Eu-labeled anti-phospho-substrate antibody (Perkin Elmer, USA). The fluorescence emission at […] was measured upon excitation at 340 nm. IC50 values were subsequently determined using a sigmoidal dose-response curve (variable slope) in GraphPad Prism® 5 software.
Compounds of formula (I) caused inhibition of mTOR kinase activity as determined by this assay.
On the technique in general: Time-resolved FRET reads energy transfer from a long-lived donor to a nearby acceptor.

Experiment [1] has as its target T2, PI3Kα (wild-type), P110/P85α (Homo sapiens, UniProt P42336).
T2 construct: made in house; host or cells: SF9 insect cells
Put plainly: PI3 Kinase TR-FRET assay, PI3Kα (wild-type). The class given is biochemical. The procedure: The ability of compounds of the invention to inhibit PI3K activity was determined in a homogeneous TR-FRET assay using a PI3K assay kit (Millipore, USA; cat #33-016) according to manufacturer's instructions. PI3-Kinases (isoforms α, β, γ and δ) catalyze the phosphorylation of phosphatidylinositol, PIP2 to PIP3 in the presence of ATP and Mg^2+. The PIP3 product is detected by displacement of biotin-PIP3 from an energy transfer complex consisting of Europium labeled anti-GST monoclonal antibody, a GST-tagged PH domain, biotinylated PIP3 and Streptavidin-APC. Excitation of Europium in the complex results in an energy transfer to the APC and a fluorescence emission at 665 nm. The PIP3 product displaces biotin-PIP3 from the complex resulting in a loss of energy transfer and thus a decrease in signal.
To test for the ability of compounds to inhibit the activity of PI3Kα (wild-type), exemplary compounds of formula (I) were dissolved in DMSO and directly distributed into 384-well plates at a volume of 0.5 μL. 14.5 μL of P110/P85α/PIP2 mixture in buffer (obtained from the Millipore kit) containing MgCl2 (40 mM) and DTT (5 mM) was added to compound wells and incubated for 60 min at room temperature. P110/P85α was expressed in SF9 insect cells and purified nickel column extraction. Five ng of wild-type P110/P85α was used in the assay. The kinase reaction was started by the addition of ATP. The assay concentrations of both PIP2 and ATP were 10 μM. The reaction mixture was incubated for 30 min at room temperature and was terminated by the addition of stop mix and detection mix. Fluorescence was measured at 615 and 665 nm upon excitation at 340 nm in a Victor™ V5 fluorometer (Perkin Elmer, USA). The fluorescence emission ratio at 665 to 615 nm, proportional to the kinase activity, was plotted against the compound concentration to generate dose-response curves and IC50 values were determined using GraphPad Prism® 5 software.

T2 sequence (P42336 whole entry): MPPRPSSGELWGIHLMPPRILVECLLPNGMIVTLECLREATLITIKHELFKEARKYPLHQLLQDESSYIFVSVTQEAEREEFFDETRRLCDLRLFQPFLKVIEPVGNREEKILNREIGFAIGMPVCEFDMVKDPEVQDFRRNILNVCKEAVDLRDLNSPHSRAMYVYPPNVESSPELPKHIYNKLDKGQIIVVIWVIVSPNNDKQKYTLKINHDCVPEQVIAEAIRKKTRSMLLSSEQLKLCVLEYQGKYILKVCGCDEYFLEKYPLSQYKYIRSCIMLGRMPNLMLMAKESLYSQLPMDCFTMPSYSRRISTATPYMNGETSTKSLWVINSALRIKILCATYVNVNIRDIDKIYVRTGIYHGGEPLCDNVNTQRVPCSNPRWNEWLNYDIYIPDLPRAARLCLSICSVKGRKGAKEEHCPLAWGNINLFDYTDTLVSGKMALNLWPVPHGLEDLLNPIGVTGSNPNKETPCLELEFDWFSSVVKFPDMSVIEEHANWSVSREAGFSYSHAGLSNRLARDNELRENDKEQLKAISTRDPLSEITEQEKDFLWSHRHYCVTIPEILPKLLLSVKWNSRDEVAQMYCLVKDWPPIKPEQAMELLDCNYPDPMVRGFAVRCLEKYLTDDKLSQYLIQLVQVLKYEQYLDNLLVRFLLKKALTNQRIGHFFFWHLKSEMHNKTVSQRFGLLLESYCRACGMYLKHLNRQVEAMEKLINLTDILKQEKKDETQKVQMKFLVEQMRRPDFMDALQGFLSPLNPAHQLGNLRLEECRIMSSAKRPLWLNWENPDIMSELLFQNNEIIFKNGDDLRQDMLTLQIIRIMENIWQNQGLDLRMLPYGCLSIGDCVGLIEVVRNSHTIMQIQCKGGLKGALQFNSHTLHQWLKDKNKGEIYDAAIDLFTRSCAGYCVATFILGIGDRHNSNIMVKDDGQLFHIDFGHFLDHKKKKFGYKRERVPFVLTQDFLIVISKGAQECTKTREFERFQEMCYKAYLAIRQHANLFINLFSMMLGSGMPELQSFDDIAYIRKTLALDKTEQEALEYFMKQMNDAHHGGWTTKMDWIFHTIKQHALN
T2 sequence (P27986 whole entry partner): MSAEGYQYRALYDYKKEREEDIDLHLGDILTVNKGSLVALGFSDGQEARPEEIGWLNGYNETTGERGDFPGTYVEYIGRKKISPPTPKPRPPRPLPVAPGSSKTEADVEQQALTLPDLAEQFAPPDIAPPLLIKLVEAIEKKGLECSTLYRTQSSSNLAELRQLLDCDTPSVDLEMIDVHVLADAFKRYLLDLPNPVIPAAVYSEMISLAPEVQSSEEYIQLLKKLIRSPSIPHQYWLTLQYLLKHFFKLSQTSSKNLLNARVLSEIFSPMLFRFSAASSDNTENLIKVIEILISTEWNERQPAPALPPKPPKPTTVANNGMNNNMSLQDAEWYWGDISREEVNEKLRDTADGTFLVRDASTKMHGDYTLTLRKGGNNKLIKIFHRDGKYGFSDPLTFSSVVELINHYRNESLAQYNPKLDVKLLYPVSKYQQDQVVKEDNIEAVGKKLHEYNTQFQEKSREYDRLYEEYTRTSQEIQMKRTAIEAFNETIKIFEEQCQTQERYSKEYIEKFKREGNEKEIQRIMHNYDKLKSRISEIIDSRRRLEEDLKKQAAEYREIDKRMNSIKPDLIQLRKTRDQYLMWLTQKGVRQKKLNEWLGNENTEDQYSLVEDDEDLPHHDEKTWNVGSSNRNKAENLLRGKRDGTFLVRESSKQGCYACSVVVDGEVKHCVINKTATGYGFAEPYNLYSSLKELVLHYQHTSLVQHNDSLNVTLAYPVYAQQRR

As for `CN(C)C(=O)c1ccc(NC(=O)Nc2ccc(-c3nc(N4CCOCC4)c4ccc(-c5cncnc5)cc4n3)cc2F)c(F)c1` [Example 139, 3-fluoro-4-(3-(2-fluoro-4-(4-morpholino-7-(pyrimidin-5-yl)quinazolin-2-yl)phenyl)ureido)-N,N-dimethyl-benzamide], the IC50 (on mTOR kinase; in experiment [1]) was 0.201 to 10 µM throughout.

Turning to `CN(C)C(=O)c1ccc(NC(=O)Nc2ccc(-c3nc(N4CCOCC4)c4ccc(-c5cncnc5)cc4n3)cn2)c(F)c1` [Example 140, 3-fluoro-N,N-dimethyl-4-(3-(5-(4-morpholino-7-(pyrimidin-5-yl)quinazolin-2-yl)pyridin-2-yl)ureido)-benzamide], the IC50 is 0.201 to 10 µM at mTOR kinase and less than 0.05 µM in experiment [1].

For the compound `CN(C)C(=O)c1ccc(NC(=O)Nc2ccc(-c3nc(N4CCOCC4)c4ncc(-c5cnn(C)c5)cc4n3)cc2F)c(F)c1` [Example 141, 3-fluoro-4-(3-(2-fluoro-4-(7-(1-methyl-1H-pyrazol-4-yl)-4-morpholino-pyrido[3,2-d]pyrimidin-2-yl)phenyl)ureido)-N,N-dimethyl-benzamide], the IC50 lay within 0.05 to 0.2 µM at mTOR kinase and 0.201 to 10 µM in experiment [1].

In the case of `Cc1ccc(-c2ccc3c(N4CCOC(C)C4)nc(-c4ccc(NC(=O)Nc5ccc(C(=O)N(C)C)cc5)cc4)nc3c2)o1` (stereo not shown) [Example 142, N,N-dimethyl-4-(3-(4-(7-(5-methylfuran-2-yl)-4-(2-methylmorpholino)quinazolin-2-yl)phenyl)ureido)-benzamide], the IC50 (at mTOR kinase; in experiment [1]) was 0.05 to 0.2 µM in each case.

Take `CC1CN(c2nc(-c3ccc(NC(=O)Nc4ccc(C(=O)N(C)C)cc4)c(F)c3)nc3cc(-c4cncnc4)ccc23)CCO1` (stereo not shown) [Example 144, 4-(3-(2-fluoro-4-(4-(2-methylmorpholino)-7-(pyrimidin-5-yl)quinazolin-2-yl)phenyl)ureido)-N,N-dimethyl-benzamide]: the IC50 is less than 0.05 µM at mTOR kinase and 0.05 to 0.2 µM in experiment [1].

Turning to `CN(C)C(=O)c1ccc(NC(=O)Nc2ccc(-c3nc(N4CCOCC4)c4ncc(-c5cccnc5F)cc4n3)cc2)c(F)c1` [Example 145, 3-fluoro-4-(3-(4-(7-(2-fluoropyridin-3-yl)-4-morpholino-pyrido[3,2-d]pyrimidin-2-yl)phenyl)ureido)-N,N-dimethyl-benzamide], the IC50 (at mTOR kinase; in experiment [1]) was less than 0.05 µM in each case.

For `CC1CN(c2nc(-c3ccc(NC(=O)Nc4ccc(C(=O)N(C)C)cc4)cc3)nc3cc(-c4cnn(C)c4)cnc23)CCO1` (stereo not shown) [Example 148, N,N-dimethyl-4-(3-(4-(7-(1-methyl-1H-pyrazol-4-yl)-4-(2-methylmorpholino)pyrido[3,2-d]pyrimidin-2-yl)phenyl)ureido)-benzamide], the IC50 (on mTOR kinase; in experiment [1]) was less than 0.05 µM each time.

Turning to `CN(C)C(=O)c1ccc(NC(=O)Nc2ccc(-c3nc(N4CCOCC4)c4cc(F)c(-c5ccco5)cc4n3)cc2)cc1` [Example 149, 4-(3-(4-(6-fluoro-7-(furan-2-yl)-4-morpholino-quinazolin-2-yl)phenyl)ureido)-N,N-dimethyl-benzamide], the IC50 (at mTOR kinase; in experiment [1]) was 0.05 to 0.2 µM in each case.

In the case of `CN(C)C(=O)c1ccc(NC(=O)Nc2ccc(-c3nc(N4CCOCC4)c4ccc(-c5cnc(O)nc5)cc4n3)cc2)cc1` [Example 150, 4-(3-(4-(7-(2-hydroxypyrimidin-5-yl)-4-morpholino-quinazolin-2-yl)phenyl)ureido)-N,N-dimethyl-benzamide], the IC50 (at mTOR kinase; in experiment [1]) was less than 0.05 µM in each case.

In the case of `COc1ccc(-c2ccc3c(N4CCOCC4)nc(-c4ccc(NC(=O)Nc5ccc(C(=O)N(C)C)cc5)c(F)c4)nc3c2)cn1` [Example 151, 4-(3-(2-fluoro-4-(7-(6-methoxypyridin-3-yl)-4-morpholino-quinazolin-2-yl)phenyl)ureido)-N,N-dimethyl-benzamide], the IC50 (at mTOR kinase; in experiment [1]) was 0.05 to 0.2 µM in each case.

Take `CN(C)C(=O)c1ccc(NC(=O)Nc2ccc(-c3nc(N4CCOCC4)c4ncc(-c5cccnc5)cc4n3)cc2)c(F)c1` [Example 153, 3-fluoro-N,N-dimethyl-4-(3-(4-(4-morpholino-7-(pyridin-3-yl)pyrido[3,2-d]pyrimidin-2-yl)phenyl)ureido)-benzamide]: the IC50 (at mTOR kinase; in experiment [1]) was less than 0.05 µM throughout.

As for `CN(C)C(=O)c1ccc(NC(=O)Nc2ccc(-c3nc(N4CCOCC4)c4ncc(-c5cncnc5)cc4n3)cc2)c(F)c1` [Example 154, 3-fluoro-N,N-dimethyl-4-(3-(4-(4-morpholino-7-(pyrimidin-5-yl)pyrido[3,2-d]pyrimidin-2-yl)phenyl)ureido)-benzamide], the IC50 (on mTOR kinase; in experiment [1]) was less than 0.05 µM each time.

Turning to `CN(C)C(=O)c1ccc(NC(=O)Nc2ccc(-c3nc(N4CCOCC4)c4ccc(-c5ccccn5)cc4n3)cc2F)cc1` [Example 156, 4-(3-(2-fluoro-4-(4-morpholino-7-(pyridin-2-yl)quinazolin-2-yl)phenyl)ureido)-N,N-dimethyl-benzamide], the IC50 (at mTOR kinase; in experiment [1]) was 0.05 to 0.2 µM throughout.

For the compound `COc1ncc(-c2cnc3c(N4CCOCC4)nc(-c4ccc(NC(=O)Nc5ccc(C(=O)N(C)C)cc5F)cc4)nc3c2)cn1` [Example 157, 3-fluoro-4-(3-(4-(7-(2-methoxypyrimidin-5-yl)-4-morpholino-pyrido[3,2-d]pyrimidin-2-yl)phenyl)ureido)-N,N-dimethyl-benzamide], the IC50 (on mTOR kinase; in experiment [1]) was less than 0.05 µM in each case.

For `CN1CCN(C(=O)c2ccc(NC(=O)Nc3ccc(-c4nc(N5CCOCC5)c5ccc(-c6ccco6)cc5n4)cc3)cc2)CC1` [Example 158, 1-(4-(7-(furan-2-yl)-4-morpholino-quinazolin-2-yl)phenyl)-3-(4-(4-methylpiperazine-1-carbonyl)phenyl)urea], the IC50 at mTOR kinase is 0.05 to 0.2 µM; in experiment [1] it was less than 0.05 µM.

With `Cc1ccc(-c2ccc3c(N4CCOCC4)nc(-c4ccc(NC(=O)Nc5ccc(C(=O)N(C)C)cc5)cc4)nc3c2)cn1` [Example 161, N,N-dimethyl-4-(3-(4-(7-(6-methylpyridin-3-yl)-4-morpholino-quinazolin-2-yl)phenyl)ureido)-benzamide], the IC50 (on mTOR kinase; in experiment [1]) was less than 0.05 µM in each case.

Turning to `Cc1nn(C)c(C)c1-c1ccc2c(N3CCOCC3)nc(-c3ccc(NC(=O)Nc4ccc(C(=O)N(C)C)cc4)cc3)nc2c1` [Example 162, N,N-dimethyl-4-(3-(4-(4-morpholino-7-(1,3,5-trimethyl-1H-pyrazol-4-yl)quinazolin-2-yl)phenyl)ureido)-benzamide], the IC50 (on mTOR kinase; in experiment [1]) was less than 0.05 µM throughout.

With `COc1ncccc1-c1ccc2c(N3CCOCC3)nc(-c3ccc(NC(=O)Nc4ccc(C(=O)N(C)C)cc4)cc3)nc2c1` [Example 163, 4-(3-(4-(7-(2-methoxypyridin-3-yl)-4-morpholino-quinazolin-2-yl)phenyl)ureido)-N,N-dimethyl-benzamide], the IC50 (at mTOR kinase; in experiment [1]) was less than 0.05 µM throughout.

Consider `CN(C)C(=O)c1ccc(NC(=O)Nc2ccc(-c3nc(N4CCOCC4)c4ccc(-c5cncc(F)c5)cc4n3)cc2)cc1` [Example 164, 4-(3-(4-(7-(5-fluoropyridin-3-yl)-4-morpholino-quinazolin-2-yl)phenyl)ureido)-N,N-dimethyl-benzamide], for which the IC50 (on mTOR kinase; in experiment [1]) was less than 0.05 µM in each case.

As for `Cc1ncccc1-c1ccc2c(N3CCOCC3)nc(-c3ccc(NC(=O)Nc4ccc(C(=O)N(C)C)cc4)cc3)nc2c1` [Example 165, N,N-dimethyl-4-(3-(4-(7-(2-methylpyridin-3-yl)-4-morpholino-quinazolin-2-yl)phenyl)ureido)-benzamide], the IC50 (at mTOR kinase; in experiment [1]) was less than 0.05 µM each time.

The values are drawn from patent US9115092B2, “Substituted quinazoline and pyrido-pyrimidine derivatives” (Asana Biosciences, LLC, priority 2010, dated 2015).
